Results from patent publication US20190142893A1, “Electron, Radical, or Reactive Oxygen Species-Scavenging Agent Based Therapy of Inborn Errors of Fatty Acid Oxidation and Oxidative Phosphorylation” (University of Pittsburgh- Of the Commonwealth System of …, priority 2016, published 2019).

Columns and labels:
Assay type in all cases: cell-based, human
[1] = tested on: VLCAD deficient fibroblasts (Fb671, Fb773, Fb834, Fb833); assay: Superoxide production (MitoSOX Red, flow cytometry) in VLCAD deficient fibroblasts; conditions: patient cells, media without glucose 48 h, after 24 h of treatment; FIGS. 27 and 28
Description: ROS generation: control and patient fibroblasts were cultivated in normal media or without glucose for 48 hours, then incubated for 15 min with MitoSox Red (Life Technologies). Fluorescence was evaluated by flow cytometry.
(§1) Cells were grown in Dulbecco's Modified Eagle Medium (DMEM), Corning Life Sciences, Manassas, Va., containing high glucose levels or in DMEM devoid of glucose for 48-72 h. Both media were supplemented with glutamine, 10% fetal bovine serum, 4 mM glutamine, 100 IU penicillin and 100 μg/mL streptomycin, Corning Life Sciences, Manassas, Va.
(§2) Cells were treated with different compounds in different concentrations 24 or 48 h before the assays. The compounds used were N-acetylcysteine (1 mM), bezafibrate (600 μM), resveratrol (75 μM), MiloQ (200 nM), trolox (1 mM) and JP4-039 (40 and 200 nM).
(§3) Cell suspension containing 1×10^5 cells per mL were incubated for 25 min at 37° C. with 150 nM Mitotracker Green, Invitrogen, Grand Island, N.Y., for mitochondrial mass evaluation or for 15 min at 37° C. with 5 μM MitoSOX Red, Invitrogen, Grand Island, N.Y., for superoxide production measurement. After incubation, 10,000 cells samples were analyzed in a Becton Dickinson FACSAria II flow cytometer, BD Biosciences, San Jose, Calif.

[2] = tested on: FAO deficient fibroblasts; assay: Superoxide production (MitoSOX dye) in FAO deficient fibroblasts; conditions: FAO deficient fibroblasts cultured in absence of glucose 48-72 h
Description: FAO deficient fibroblasts were cultured in the absence of glucose for 48-72 h to shift to fatty acids as the energy source. Oxygen consumption rate (OCR) was monitored by a Seahorse XF analyzer (See FIG. 23). Mitochondrial mass was examined by MitoTracker Green and ROS generation by MitoSOX dye. Protein immunocontent was evaluated by western blotting. […] Testing of XJB-5-131 was conducted essentially as described for JP4-039.
as §3

[3] = tested on: VLCAD deficient fibroblasts (Fb671, Fb773, Fb834); assay: Oxygen consumption rate (Seahorse analyzer) in VLCAD deficient fibroblasts; conditions: FB671, media without glucose, FIG. 25
Description: Oxygen consumption assay: Fibroblasts controls and from patients with VLCAD deficiency were cultivated in normal media or in the absence of glucose for 72 hours. The oxygen consumption was monitored by a Seahorse XFe96 Extracellular Flux Analyzer (Seahorse Bioscience, Billerica, Mass.).
as §1, §2
Oxygen consumption rate (OCR) was measured with a Seahorse XF^c96 Extracellular Flux Analyzer (Seahorse Bioscience, Billerica, Mass.). The apparatus contains a fluorophore that is sensitive to changes in oxygen concentration, which enables it to accurately measure the rate at which cytochrome c oxidase (complex IV) reduces one O2 molecule to two H2O molecules during OXPHOS. Cells were seeded in 96-well Seahorse tissue culture microplates in growth media at a density of 80,000 cells per well. To ensure equal cell numbers, cells were seeded in cell culture plates pre-coated with Cell-Tak (BD Biosciences, San Jose, Calif.). All cell lines were measured with four to six wells per cell line. Then, the entire experiments were repeated. Before running the Seahorse assay, cells were incubated for 1 h without CO2 in unbuffered DMEM. Initial OCR was measured to establish a baseline (basal respiration). Reserve capacity was also determined after the injection of 300 nM carbonyl cyanide 4-(trifluoromethoxy) phenylhydrazone (FCCP), Seahorse XF Cell Mito Stress Test Kit, Santa Clara, Calif. Data were reported in pmol/min for OCR.

Oc1ccc(C=Cc2cc(O)cc(O)c2)cc1 [resveratrol]
Superoxide generation (increased levels in VLCAD deficient cells) [1]: JP4-039 was the only antioxidant able to decrease superoxide generation

COC1=C(OC)C(=O)C(CCCCCCCCCC[P+](c2ccccc2)(c2ccccc2)c2ccccc2)=C(C)C1=O [MitoQ]
Superoxide generation (increased levels in VLCAD deficient cells) [1]: JP4-039 was the only antioxidant able to decrease superoxide generation

CC(=O)N[C@@H](CS)C(=O)O [N-acetylcysteine]
Superoxide generation (increased levels in VLCAD deficient cells) [1]: JP4-039 was the only antioxidant able to decrease superoxide generation

CC(C)C[C@@H](/C=C/[C@H](Cc1ccccc1)C(=O)N1CCC[C@H]1C(=O)N[C@H](C(=O)N[C@@H](CCCNC(=O)OCc1ccccc1)C(=O)NC1CC(C)(C)N([O])C(C)(C)C1)C(C)C)NC(=O)OC(C)(C)C [XJB-5-131]
Increased superoxide production [2]: prevented
Reserved capacity (oxygen consumption) ([3]; 40 nM): improves
Basal respiration (oxygen consumption) ([3]; 200 nM): improved
Reserved capacity (oxygen consumption) ([3]; 200 nM): improves
